From patent US12054498B2, “Heteroaromatic macrocyclic ether chemotherapeutic agents” (Nuvalent, Inc., priority 2020, dated 2024)

Key:
[1] = target: T1, TRKA-wt (Homo sapiens, UniProt P04629); assay: Biochemical kinase assay, TRKA-wt kinase domain; conditions: apparent inhibitory constant, Morrison equation; ATP 2 mM in substrate solution; read-out: TRKA-wt Ki^app
T1 construct: or TRKA-wt (1 nM, BPS Bio, 40280) kinase domains in buffer; purchased BPS Bio 40280
In short: (§1)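 Apparent Ki values come from fitting initial reaction rates against inhibitor concentration to the Morrison equation. Rates were taken from the linear phase of fluorogenic substrate phosphorylation (AQT0101 for ALK and ROS1, AQT0104 for TRKA; 26 μM in substrate solution with 2 mM ATP), monitored at 485 nm over 120 min at 30° C.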

[2] = target: T2, ROS1-G2032R (Homo sapiens, UniProt P08922, G2032R); assay: Biochemical kinase assay, ROS1-G2032R kinase domain; conditions: apparent inhibitory constant, Morrison equation; ATP 2 mM in substrate solution; read-out: ROS1-G2032R Ki^app
T2 construct: purchased SignalChem R14-12BG
In short: (§2)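 Compounds, as 100-fold DMSO stocks, were dispensed first, then substrate mix was added (ATP 2 mM, AQT0101 26 μM, in 50 mM HEPES pH 7.5/10 mM MgCl2). Reactions ran at 30 °C with fluorescence logged every 2 min over 120 min. Apparent inhibition constants came from fitting rates to Morrison's tight-binding equation.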

[3] = tested on: TPM3-NTRK1-wt IC50 / primary target IC50 (e.g. CD74-ROS1-wt); assay: TRKA selectivity in Ba/F3 cells (TRKA potency divided by primary target potency); assay type: cell-based; conditions: for TPM3-NTRK1-wt/CD74-ROS1-G2032R selectivity ratio: TRKA potency / CD74-ROS1-G2032R potency; for TPM3-NTRK1-wt/CD74-ROS1-wt selectivity ratio: TRKA potency / CD74-ROS1-wt potency; for TPM3-NTRK1-wt/EML4-ALK-L1196M-G1202R selectivity ratio: TRKA potency / EML4-ALK-L1196M-G1202R potency; for TPM3-NTRK1-wt/EML4-ALK-wt selectivity ratio: TRKA potency / EML4-ALK-wt potency
Experimental: TRKA selectivity was calculated by dividing a compound's TRKA potency by its primary target potency (e.g. TPM3-NTRK1-wt IC50/CD74-ROS1-wt IC50). Compound selectivity can be interpreted by binning ratio values: bin A for very high selectivity, ratio >30-fold; bin B for high selectivity, ratio >10-fold; bin C for moderate selectivity, ratio ≥1; and bin D for low selectivity, ratio <1. […] (nd=not determined).

[4] = target: T3, Ba/F3 cells CD74-ROS1 G2032R (Homo sapiens, UniProt P08922, G2032R); assay: Ba/F3 cell proliferation assay, CD74-ROS1 G2032R; assay type: cell-based; conditions: 72 hours, CellTiter-Glo
T3 construct: fusion of the C-terminus of ROS1 with the N-terminus of various partner proteins; host or cells: Ba/F3 (RIKEN), retroviral pMSCV-puro; the other entry of the earlier key: CD74 (P04233, HLA class II histocompatibility antigen gamma chain)
In short: (§3)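 Viability read by CellTiter-Glo luminescence after 72 h exposure to 3-fold serial compound dilutions, four-parameter logistic fitting giving IC50.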

[5] = target: T4, ALK L1196M/G1202R (Homo sapiens, UniProt Q9UM73, G1202R/L1196M); assay: Biochemical kinase assay, ALK L1196M/G1202R kinase domain; conditions: apparent inhibitory constant, Morrison equation; ATP 2 mM in substrate solution; read-out: ALK-L1196M-G1202R Ki^app
T4 construct: purchased SignalChem A19-12NG
In short: as §1

[6] = target: T5, Ba/F3 cells TPM3-TRKA (Homo sapiens, UniProt P04629); assay: Ba/F3 cell proliferation assay, TPM3-TRKA; assay type: cell-based; conditions: 72 hours, CellTiter-Glo, read-out: TPM3-NTRK1-wt IC50
T5 construct: host or cells: Ba/F3 (RIKEN), retroviral pMSCV-puro; the other entry of the earlier key: TPM3 (P06753, Tropomyosin alpha-3 chain)
In short: (§4)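 Ba/F3 lines stably expressing the fusion (retroviral pMSCV-puro, selected by IL-3 withdrawal plus puromycin 0.8 μg/mL, monoclonal) were seeded at 1,000 cells/well, dosed next day with 3-fold compound dilutions, and incubated 72 hours. CellTiter-Glo luminescence gave percent inhibition; IC50 by four-parameter logistic fit.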

[7] = target: T6, ROS1-wt (Homo sapiens, UniProt P08922); assay: Biochemical kinase assay, ROS1-wt kinase domain; conditions: apparent inhibitory constant, Morrison equation; ATP 2 mM in substrate solution; read-out: ROS1-wt Ki^app
T6 construct: purchased Carna 08-163
In short: as §2

[8] = target: T7, ALK-wt (Homo sapiens, UniProt Q9UM73); assay: Biochemical kinase assay, ALK-wt kinase domain; conditions: apparent inhibitory constant, Morrison equation; ATP 2 mM in substrate solution; read-out: ALK-wt Ki^app
T7 construct: purchased Carna 08-518
In short: as §1

[9] = target: T8, Ba/F3 cells CD74-ROS1 wild-type (wt) (Homo sapiens, UniProt P08922); assay: Ba/F3 cell proliferation assay, CD74-ROS1 wild-type; assay type: cell-based; conditions: 72 hours, CellTiter-Glo
T8 construct: fusion of the C-terminus of ROS1 with the N-terminus of various partner proteins; host or cells: Ba/F3 (RIKEN), retroviral pMSCV-puro; the other entry of the earlier key: CD74 (P04233, HLA class II histocompatibility antigen gamma chain)
In short: as §3

[10] = target: T9, Ba/F3 cells EML4-ALK wt (variant 1) (Homo sapiens, UniProt Q9UM73); assay: Ba/F3 cell proliferation assay, EML4-ALK wt (variant 1); assay type: cell-based; conditions: 72 hours, CellTiter-Glo
T9 construct: echinoderm microtubule-associated protein-like 4 (EML4) gene and the ALK tyrosine kinase domain; host or cells: Ba/F3 (RIKEN), retroviral pMSCV-puro; the other entry of the earlier key: EML4 (Q9HC35, Echinoderm microtubule-associated protein-like 4)
In short: as §4

[11] = target: T10, Ba/F3 cells EML4-ALK L1196M/G1202R (variant 1) (Homo sapiens, UniProt Q9UM73, G1202R/L1196M); assay: Ba/F3 cell proliferation assay, EML4-ALK L1196M/G1202R (variant 1); assay type: cell-based; conditions: 72 hours, CellTiter-Glo
T10 construct: echinoderm microtubule-associated protein-like 4 (EML4) gene and the ALK tyrosine kinase domain; host or cells: Ba/F3 (RIKEN), retroviral pMSCV-puro; the other entry of the earlier key: EML4 (Q9HC35, Echinoderm microtubule-associated protein-like 4)
In short: as §4

T3 sequence (P08922 1883-2347 G2032R limits assumed): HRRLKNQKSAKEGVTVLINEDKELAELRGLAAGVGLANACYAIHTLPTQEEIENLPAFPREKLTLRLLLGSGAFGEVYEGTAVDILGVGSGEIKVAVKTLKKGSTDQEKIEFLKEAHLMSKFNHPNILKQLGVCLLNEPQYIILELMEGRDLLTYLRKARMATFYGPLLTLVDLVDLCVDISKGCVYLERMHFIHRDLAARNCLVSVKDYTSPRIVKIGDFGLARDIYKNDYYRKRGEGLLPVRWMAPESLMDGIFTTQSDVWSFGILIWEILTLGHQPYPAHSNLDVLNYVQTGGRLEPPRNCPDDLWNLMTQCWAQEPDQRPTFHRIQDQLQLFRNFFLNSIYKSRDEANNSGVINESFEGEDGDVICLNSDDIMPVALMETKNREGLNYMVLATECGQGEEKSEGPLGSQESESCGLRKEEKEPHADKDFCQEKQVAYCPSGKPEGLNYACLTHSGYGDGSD
T5 sequence (P04629 510-796 limits assumed): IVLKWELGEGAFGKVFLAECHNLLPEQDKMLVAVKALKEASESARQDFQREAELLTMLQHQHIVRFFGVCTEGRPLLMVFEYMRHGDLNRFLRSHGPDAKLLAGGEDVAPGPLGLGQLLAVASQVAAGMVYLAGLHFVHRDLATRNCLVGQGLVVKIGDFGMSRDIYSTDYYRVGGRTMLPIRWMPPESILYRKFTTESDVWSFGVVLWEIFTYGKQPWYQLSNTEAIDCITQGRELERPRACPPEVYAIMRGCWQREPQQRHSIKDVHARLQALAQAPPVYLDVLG
T1 sequence (P04629 510-781 limits assumed): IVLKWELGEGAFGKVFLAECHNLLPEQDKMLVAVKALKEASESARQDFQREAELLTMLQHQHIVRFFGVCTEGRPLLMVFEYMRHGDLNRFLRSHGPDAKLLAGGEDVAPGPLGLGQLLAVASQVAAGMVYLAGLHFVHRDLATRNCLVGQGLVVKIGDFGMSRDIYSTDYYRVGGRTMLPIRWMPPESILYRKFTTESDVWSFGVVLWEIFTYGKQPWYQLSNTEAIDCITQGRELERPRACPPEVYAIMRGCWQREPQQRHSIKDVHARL
T7 sequence (Q9UM73 1116-1392 limits assumed): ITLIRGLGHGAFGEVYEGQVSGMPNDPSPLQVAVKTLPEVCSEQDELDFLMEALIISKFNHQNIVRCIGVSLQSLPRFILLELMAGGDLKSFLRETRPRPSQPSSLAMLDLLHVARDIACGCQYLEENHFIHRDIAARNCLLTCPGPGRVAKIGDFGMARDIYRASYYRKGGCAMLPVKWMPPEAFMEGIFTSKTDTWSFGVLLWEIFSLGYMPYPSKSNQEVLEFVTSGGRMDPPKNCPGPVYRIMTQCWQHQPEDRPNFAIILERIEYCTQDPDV
T9 sequence (Q9UM73 with tags, fused parts or gaps): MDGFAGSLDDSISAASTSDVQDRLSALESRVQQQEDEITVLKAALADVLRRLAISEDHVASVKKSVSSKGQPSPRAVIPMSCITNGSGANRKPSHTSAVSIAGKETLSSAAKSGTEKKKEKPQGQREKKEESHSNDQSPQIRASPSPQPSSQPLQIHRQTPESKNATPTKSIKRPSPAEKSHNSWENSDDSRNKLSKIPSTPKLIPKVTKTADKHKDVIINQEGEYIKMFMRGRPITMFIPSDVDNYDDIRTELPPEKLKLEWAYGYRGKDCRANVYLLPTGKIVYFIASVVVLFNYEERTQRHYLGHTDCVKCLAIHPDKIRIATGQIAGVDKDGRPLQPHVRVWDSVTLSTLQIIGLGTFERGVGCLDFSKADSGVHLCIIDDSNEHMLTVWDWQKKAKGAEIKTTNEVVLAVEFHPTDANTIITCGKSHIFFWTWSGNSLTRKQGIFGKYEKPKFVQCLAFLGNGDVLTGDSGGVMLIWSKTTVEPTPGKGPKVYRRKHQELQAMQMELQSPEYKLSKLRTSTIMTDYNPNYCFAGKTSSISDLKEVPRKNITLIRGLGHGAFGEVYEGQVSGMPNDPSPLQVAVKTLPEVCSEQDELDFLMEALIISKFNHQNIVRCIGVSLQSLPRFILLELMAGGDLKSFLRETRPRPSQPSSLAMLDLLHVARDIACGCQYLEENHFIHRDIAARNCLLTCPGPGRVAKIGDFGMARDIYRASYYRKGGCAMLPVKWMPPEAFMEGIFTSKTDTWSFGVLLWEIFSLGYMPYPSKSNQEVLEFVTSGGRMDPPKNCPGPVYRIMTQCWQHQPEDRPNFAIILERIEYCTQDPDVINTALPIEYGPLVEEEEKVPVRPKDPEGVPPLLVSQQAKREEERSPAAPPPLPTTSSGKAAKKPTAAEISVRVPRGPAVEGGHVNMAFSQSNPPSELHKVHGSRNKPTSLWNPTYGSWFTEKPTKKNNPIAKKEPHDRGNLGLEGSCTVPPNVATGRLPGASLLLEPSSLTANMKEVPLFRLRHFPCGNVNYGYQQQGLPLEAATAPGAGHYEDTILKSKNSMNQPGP
T2 sequence (P08922 1945-2222 G2032R limits assumed): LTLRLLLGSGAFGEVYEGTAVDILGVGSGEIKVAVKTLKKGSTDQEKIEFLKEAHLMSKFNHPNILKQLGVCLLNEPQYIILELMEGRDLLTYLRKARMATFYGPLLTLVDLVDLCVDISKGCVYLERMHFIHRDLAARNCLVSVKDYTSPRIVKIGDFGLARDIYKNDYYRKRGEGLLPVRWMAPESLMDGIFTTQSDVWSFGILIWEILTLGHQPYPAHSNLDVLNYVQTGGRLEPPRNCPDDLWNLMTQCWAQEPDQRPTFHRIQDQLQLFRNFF
T4 sequence (Q9UM73 1116-1392 L1196M/G1202R limits assumed): as the sequence (Q9UM73 1116-1392 limits assumed) above, with L81M, G87R counted along it
T10 sequence (Q9UM73 with tags, fused parts or gaps L1196M/G1202R): as the sequence (Q9UM73 with tags, fused parts or gaps) above, with L635M, G641R counted along it
T6 sequence (P08922 1945-2222 limits assumed): as the sequence (P08922 1945-2222 G2032R limits assumed) above, with R88G counted along it
T8 sequence (P08922 1883-2347 limits assumed): as the sequence (P08922 1883-2347 G2032R limits assumed) above, with R150G counted along it

Ki [1]	Ki [2]	IC50 [4]	Ki [5]	IC50 [6]	Ki [7]	Ki [8]	IC50 [9]	IC50 [10]	IC50 [11]	Structure (SMILES)	TPM3-NTRK1-wt/CD74-ROS1-G2032R selectivity ratio [3]	TPM3-NTRK1-wt/CD74-ROS1-wt selectivity ratio [3]	TPM3-NTRK1-wt/EML4-ALK-L1196M-G1202R selectivity ratio [3]	TPM3-NTRK1-wt/EML4-ALK-wt selectivity ratio [3]
50 to 500 nM	< 50 nM	0.1 to 50 nM	50 to 500 nM	50 to 500 nM	< 50 nM	< 50 nM	0.1 to 50 nM	0.1 to 50 nM	50 to 500 nM	CCn1nnc2c1-c1cnc(N)c(c1)O[C@H](C)c1cc(F)ccc1-c1cc(Cl)nn1C2 [Example 54, (19R)-10-chloro-3-ethyl-16-fluoro-19-methyl-20-oxa-3,4,5,8,9,23-hexaazapentacyclo[19.3.1.0^2,^6.0^8,^12.0^13,^18]pentacosa-1(24),2(6),4,9,11,13,15,17,21(25),22-decaen-22-amine]	A (bin A for very high selectivity, ratio >30-fold)	A (bin A for very high selectivity, ratio >30-fold)	D (bin D for low selectivity, ratio <1)	C (bin C for moderate selectivity, ratio ≥1)
> 500 nM	< 50 nM	0.1 to 50 nM	50 to 500 nM	> 500 nM	< 50 nM	< 50 nM	0.1 to 50 nM	0.1 to 50 nM	50 to 500 nM	C[C@H]1Oc2cc(cnc2N)-c2c(cnn2CC(F)F)Cn2nc(Cl)cc2-c2ccc(F)cc21 [Example 55, (19R)-10-chloro-3-(2,2difluoroethyl)-16-fluoro-19-methyl-20-oxa-3,4,8,9,23-pentaazapentacyclo[19.3.1.0^2,^6.0^8,^12.0^13,^18]pentacosa-1(24),2(6),4,9,11,13,15,17,21(25),22-decaen-22-amine]	A (bin A for very high selectivity, ratio >30-fold)	A (bin A for very high selectivity, ratio >30-fold)	C (bin C for moderate selectivity, ratio ≥1)	A (bin A for very high selectivity, ratio >30-fold)
50 to 500 nM	< 50 nM	0.1 to 50 nM	< 50 nM	50 to 500 nM	< 50 nM	< 50 nM	0.1 to 50 nM	0.1 to 50 nM	50 to 500 nM	CCn1nc(C)c2c1-c1cnc(N)c(c1)O[C@H](C)c1cc(F)ccc1-c1ncnn1C2 [Example 56, (19R)-3-ethyl-16-fluoro-5,19-dimethyl-20-oxa-3,4,8,9,11,23-hexaazapentacyclo[19.3.1.0^2,^6.0^8,^12.0^13,^18]pentacosa-1(24),2(6),4,9,11,13,15,17,21(25),22-decaen-22-amine]	A (bin A for very high selectivity, ratio >30-fold)	A (bin A for very high selectivity, ratio >30-fold)	C (bin C for moderate selectivity, ratio ≥1)	B (bin B for high selectivity, ratio >10-fold)
50 to 500 nM	50 to 500 nM	50 to 500 nM	50 to 500 nM	50 to 500 nM	< 50 nM	< 50 nM	0.1 to 50 nM	50 to 500 nM	> 500 nM	CCc1noc2c1-c1cnc(N)c(c1)O[C@H](C)c1cc(F)ccc1-c1nnnn1C2 [Example 58, (19R)-3-ethyl-16-fluoro-19-methyl-5,20-dioxa-4,8,9,10,11,23-hexaazapentacyclo[19.3.1.0^2,^6.0^8,^12.0^13,^18]pentacosa-1(24),2(6),3,9,11,13,15,17,21(25),22-decaen-22-amine]	C (bin C for moderate selectivity, ratio ≥1)	A (bin A for very high selectivity, ratio >30-fold)	D (bin D for low selectivity, ratio <1)	C (bin C for moderate selectivity, ratio ≥1)
> 500 nM	50 to 500 nM	0.1 to 50 nM	50 to 500 nM	> 500 nM	< 50 nM	50 to 500 nM	0.1 to 50 nM	50 to 500 nM	> 500 nM	C[C@H]1Oc2cc(cnc2N)-c2c(c(Cl)nn2CC(F)F)Cc2nn(C)nc2-c2ccc(F)cc21 [Example 60, (19R)-5-chloro-3-(2,2difluoroethyl)-16-fluoro-10,19-dimethyl-20-oxa-3,4,9,10,11,23-hexaazapentacyclo[19.3.1.0^2,^6.0^8,^12.0^13,^18]pentacosa-1(24),2(6),4,8,11,13,15,17,21(25),22-decaen-22-amine]	A (bin A for very high selectivity, ratio >30-fold)	A (bin A for very high selectivity, ratio >30-fold)	B (bin B for high selectivity, ratio >10-fold)	A (bin A for very high selectivity, ratio >30-fold)
> 500 nM	< 50 nM	0.1 to 50 nM	< 50 nM	> 500 nM	< 50 nM	< 50 nM	0.1 to 50 nM	0.1 to 50 nM	0.1 to 50 nM	C[C@H]1Oc2cc(cnc2N)-c2c(cnn2CC2CC2)Cc2nn(C)cc2-c2ccc(F)cc21 [Example 61, (19R)-3-(cyclopropylmetbyl)-16-fluoro-10,19-dimethyl-20-oxa-3,4,9,10,23-pentaazapentacyclo[19.3.1.0^2,^6.0^8,^12.0^13,^18]pentacosa-1(24),2(6),4,8,11,13,15,17,21(25),22-decaen-22-amine]	A (bin A for very high selectivity, ratio >30-fold)	A (bin A for very high selectivity, ratio >30-fold)	A (bin A for very high selectivity, ratio >30-fold)	A (bin A for very high selectivity, ratio >30-fold)
